For data set [1], the system named is neutrophils. Nature of the data set: Phagotest neutrophil phagocytosis, blood incubated with ammonia and amino acids. It is filed as cell-based, human. How it is done:
Methods for Measurement of Neutrophil Phagocytosis and oxidative burst Phagotest: Heparinised whole blood was incubated with opsonised FITC-labelled E coil and CD16. The cells were then analysed by flow cytometry (FACScan Becton Dickinson), gated through forward and side scatter and subsequently assessed on the basis of R-phycoerythrin (PE) [Immunotech, Marseille, France] flurochrome expression to identify CD16 positive cells. The gated population was then assessed for the presence of FITC-labelled bacteria.
(§1) Blood was collected from healthy volunteers (n=15) and incubated for 1 hour with increasing concentrations of ammonia. The ability of the neutrophils to phagocytose bacteria was measured using the Phagotest and Neutrophil chemotaxis assays. 10 ng/ml IL-8 was used in the Neutrophil chemotaxis assay.
Blood was collected from healthy volunteers (n=15) and incubated for 1 hour with ammonia and selected amino acids. The ability of the neutrophils to phagocytose bacteria was measured using the Phagotest assay.

Data set [2] has as its system neutrophils. The settings on record: blood incubated 1 hour with increasing concentrations of ammonia; 10 ng/ml IL-8 (FIG. 3). How it is done: Neutrophil Chemotaxis: Neutrophil chemotaxis was measured using a modified Boyden chamber method using interleukin-8 as chemo-attractant to stimulate chemokinesis.
as §1

In data set [3] the test system is patients with biopsy proven cirrhosis of the liver. In words: Simulated gastrointestinal bleed in cirrhotic patients, neutrophil chemotaxis with isoleucine infusion. The class given is in vivo, human. Conditions: after simulated bleed (75 g amino acid mixture), isoleucine iv over 2 hours. From the text:
Ten overnight fasted, metabolically stable patients with biopsy proven cirrhosis of the liver [9 males and 1 female; mean 49.6 years (SEM 9.1); mean Child-Pugh score of 7.8 (SEM 1.2)] were studied prior to and two hours after an oral administration of 75 grams of an amino acid mixture that mimics the hemoglobin molecule (Nutricia, Cuijk, Netherlands). In seven other patients [4 male and 3 female; mean 51.4 years (SEM 6.7); mean Child-Pugh score of 8.1 (SEM 1.4)], following administration of the amino acid mixture, isoleucine was administered intravenously over a 2 hour period (iso-osmotic solution containing 40 mg/l of isoleucine at a rate of 100 ml/hr). Neutrophil chemotaxis (see Example 1 for method) and plasma ammonia were measured in peripheral venous blood samples.

For data set [4], the system named is patients with biopsy-proven cirrhosis of the liver. In words: Simulated bleed with isoleucine supplementation: protein kinetics (Phe model) and ammonia. It is filed as in vivo, human. The settings on record: for Net Balance / Protein breakdown / Protein synthesis: mean ± SEM. How it is done: Sixteen metabolically stable patients with biopsy-proven cirrhosis of the liver were studied. Patients were randomized either to supplementation with isoleucine (40 mg/L solution; 50 ml/hr) or placebo during a simulated bleed over a 4-hour period. Protein synthesis (measured using primed continuous infusion of L-[ring-^2H5]phenylalanine), L-[ring-^2H4]tyrosine and L[ring-^2H2]tyrosine) and ammonia.

For data set [5], the system named is patients with cirrhosis admitted for management of variceal bleeding. Nature of the data set: Open labelled study of isoleucine and OIP after variceal bleeding. The class given is in vivo, human. How it is done:
• 1. Groups—2 patients per group. Total 6 • 2. Inclusion criteria • Adult patients aged 18-80 years, liver cirrhosis documented by histology or clinical criteria, Child B or C, recent Gastrointestinal bleed from varices (<6 hours after presentation), informed consent/assent. • 3. Exclusion criteria • other concomitant neurological disorder, use of another specific ammonia lowering drug, respiratory failure requiring mechanical ventilation and sedation, uncontrolled gastrointestinal bleeding, hypotension requiring inotropes, overt renal failure (creatinine >2 nag/dl), hemodialysis, extracorporeal liver support, known hypersensitivity to any of the study drugs, pregnancy/lactation. Methods
In an open labelled study, we included 6 patients with cirrhosis and who were admitted for management of variceal bleeding. They were matched for the severity of liver disease (see Table 4). They were treated with one of the following regimes for a 3 day period and observations were made for 5 days. The study groups were:
i. Placebo: 5% Dextrose over 4 hours (250 ml)
ii. Isoleucine alone: 10 gm IV in 250 ml 5% Dextrose over 2 hours in two divided doses.
Patients were fasted overnight between 0000 midnight and 0800 am. They were fed intragastrically with a diet of 25 KCal/Kg that included 1 g/Kg protein diet starting at 0800 and finishing at midnight. Blood was sampled at 0730 am and then at 1800 hr for the measurement of ammonia and glutamine. Patients were monitored closely for side effects. The drug was tolerated well in each of the groups and no adverse events were observed. Because the patients received sedation for their initial endoscopy, the mental state assessment was impossible to interpret. One patient each in the Placebo and the Isoelucine groups died from multiorgan failure in the hospital. The rest of the patients survived.

The test system of data set [6] is patients with cirrhosis and hyperammonemia. Nature of the data set: Open labelled study of ornithine, phenylbutyrate and OP in hepatic encephalopathy. It is filed as in vivo, human. Conditions: for mean ammonia levels: over the period of treatment (FIG. 11); for mean glutamine levels: over the period of treatment (FIG. 12). From the text:
• 1. Groups-3 patients per group. Total 12. • 2. Inclusion criteria • adult patients aged 18-80 years, —liver cirrhosis documented by histology or clinical criteria • HE type C, ammonia concentration of >80 umol/L, informed consent/assent • 3. Exclusion criteria • other concomitant neurological disorder, —use of another specific ammonia lowering drug, —respiratory failure requiring mechanical ventilation and sedation, —uncontrolled gastrointestinal bleeding, —hypotension requiring inotropes, overt renal failure (creatinine >2 mg/dl), hemodialysis, —extracorporeal liver support, known hypersensitivity to any of the study drugs, —pregnancy. Assessment of Mental State
In an open labelled study, we included 8 patients with cirrhosis and hyperammonemia. They were matched for the severity of liver disease (see Table 3). They were treated with one of the following regimes for a 3 day period and observations were made for 5 days. The study groups were:
(i) Placebo: 5% Dextrose over 4 hours;
(iii) Phenylbutyrate: 10 g twice daily, orally (0800 and 1600); and
Patients were fasted overnight between 0000 midnight and 0800 am. They were fed intragastrically with a diet of 25 KCal/Kg that included 1 g/Kg protein diet starting at 0800 and finishing at midnight. Blood was sampled at 0730 am and then at 1800 hr for the measurement of ammonia and glutamine. Patients were monitored closely for side effects.

Data set [7] deals with devascularized pig model of acute liver failure. Nature of the data set: Devascularized pig model of acute liver failure. The class given is in vivo, pigs. The settings on record: for muscle ammonia uptake/production (femoral vein-artery): FIG. 23.
Method: Pigs had catheters inserted into the femoral artery and vein, portal vein, renal vein and pulmonary artery. The experiment started at time=−1 hr, when placebo or treatment infusions were started.
1. Placebo: 5% Dextrose over 3 hours, oral water placebo
At the end of the experiment a section of frontal cortex was removed for brain water measurements.
Data set [8] relates to patients with advanced cirrhosis. Nature of the data set: Aspartate accumulation during L-ornithine L-aspartate treatment. It is filed as in vivo, human.
For another data set, the system named is patients with cirrhosis. Nature of the data set: LOLA infusion in cirrhosis with HE: ammonia and glutamine. It is filed as in vivo, human. The source says:
(§2) Blood was sampled for the measurement of ammonia and glutamine.

Data set [9] has as its system patients with HE grade 3 undergoing heamofiltration. In words: LOLA infusion in patients undergoing heamofiltration (CVVH). It is filed as in vivo, human.
Source text: as §2

For a further data set, the system named is BDL cirrhotic rats. Nature of the data set: Bile duct ligated rat model, IP ornithine, phenylbutyrate, OP. It is filed as in vivo, Sprague-Dawley rats. How it is done: Male Sprague-Dawley rats (200-250 g) were used for this procedure. Following anaesthetisation, a mid-line laparotamy was performed, the bile duct was exposed, triply ligated with 4.0 silk suture, and severed between the second and third ligature. The wound was closed in layers with absorbable suture, and the animal allowed to recover in a quiet room before being returned to the animal storage facility. Animals were kept at a constant temperature (20° C.) in a 12 hour light/dark cycle with access to water and standard rodent chow ad libitum. […] At six weeks, under anaesthesia a right carotid arterial catheter was inserted and used to collect repeated blood samples. Following this procedure a baseline sample was collected prior to administration of the study formulations by IP injection. […] Blood samples were collected into pre-cooled […] tubes and stored on ice prior to processing. Plasma was collected following centrifugation (3,000 rpm, 10 mins) and stored at -80° C. prior to analyses. Ammonia, glucose, lactate and urea were measured using a COBRAS Mira S according to manufacturers instructions. Amino acids were quantified by HPLC with fluorescence detection.

The mark [10] stands for this setting: LOLA 40 g over 8 hours (FIG. 8).

Entries after “also recorded” stand apart in the source; their conditions may differ.

Turning to `N` [ammonia], in the data set with neutrophils [1] (blood of healthy volunteers incubated 1 hour with increasing concentrations of ammonia (FIG. 2)), the neutrophil phagocytosis result is recorded as “significant reduction”. Further, the neutrophil chemotaxis entry in the data set with neutrophils [2] was “significant reduction”.

Take `NC(=O)CC[C@H](N)C(=O)O` [glutamine]: the “ammonia-induced reduction in neutrophil phagocytosis” value in the data set with neutrophils [1] (blood incubated 1 hour with ammonia and selected amino acid (FIG. 4)) is “partially reversed”.

On to `CC[C@H](C)[C@H](N)C(=O)O` [isoleucine], for which the neutrophil chemotaxis in [3] is listed as 25.4 (±6.0) cells/high power field. Also, the “Net Balance” value was 261 ± 102 nmol/kg body cell mass/min in data set [4] (Leg, End); −185 ± 152 nmol/kg body cell mass/min in data set [4] (Leg, t = 0 hours); 682 ± 165 nmol/kg body cell mass/min in data set [4] (Liver, End); 98 ± 33 nmol/kg body cell mass/min in data set [4] (Liver, t = 0 hours). Besides, the Protein breakdown is given as 159 ± 100 nmol/kg body cell mass/min in data set [4] (Leg, End); 196 ± 61 nmol/kg body cell mass/min in data set [4] (Leg, t = 0 hours); 157 ± 204 nmol/kg body cell mass/min in [4] (Liver, End); 109 ± 25 nmol/kg body cell mass/min in [4] (Liver, t = 0 hours). Also, the Protein synthesis in data set [4] (Leg, End) was 377 ± 135 nmol/kg body cell mass/min; in [4] (Leg, t = 0 hours) it was −31 ± 201 nmol/kg body cell mass/min; in data set [4] (Liver, End (final hour of amino acid infusion)) it was 839 ± 221 nmol/kg body cell mass/min; in data set [4] (Liver, t = 0 hours), 218 ± 37 nmol/kg body cell mass/min. Besides, in data set [4] (isoleucine infusion during simulated bleed), the “protein synthesis of liver and muscle” value is reported as “restores impaired protein synthesis”. For the same molecule, the “ammonia concentration, isoleucine versus placebo” value in data set [4] (simulated bleed over 4 hours (FIG. 7)) is “not significantly different”. For the same molecule, the “patients died from multiorgan failure in the hospital” value in [5] (2 patients per group) was “One”. Moreover, in data set [5] (FIG. 14), the ammonia concentrations result is given as “no significant changes”. In addition, the glutamine levels result in data set [5] (FIG. 15) is “not significantly altered”. Further, the Dead/Alive result in [5] (individual patients P3-P6, listed as Isoleucine alone) is “P3: A; also recorded: P4: D”.

For the molecule `NCCC[C@H](N)C(=O)O` [ornithine], in data set [6], the mean ammonia levels result is “increased from baseline values” and the mean glutamine levels result is given as “increase”. Further, the Ornithine levels result in data set [5] (over the course of OIP treatment, reduced to basal values on stopping the drug (FIG. 18)) was “marked sustained increase”. Further, in data set [7] (FIG. 27), the arterial ornithine levels entry is reported as “increase”.

In the case of L-ornithine L-aspartate [LOLA], the ASPARTATE concentration in [8] (Day 1, 40 g/day) was 178 µmol/L; in data set [8] (Day 2, 40 g/day) it was 289 µmol/L; in data set [8] (Day 3, 40 g/day), 354 µmol/L; in data set [8] (PRE, 40 g/day L-ornithine L-aspartate), 72 µmol/L. Moreover, the “increase in the aspartate concentration” value in [8] (over a 3 day period) was found to be 5 times the basal value. Besides, in the data set with patients with cirrhosis (LOLA 40 g over 8 hours), the “severity of HE” value is recorded as “beneficial effects”. The figures for the ammonia concentration entry (in the data set on patients with cirrhosis (setting [10]); in data set [9] (LOLA 40 g over 8 hours with CVVH (FIG. 9))) were “significant reduction” and “reduction”, respectively. For the same molecule, the glutamine concentration result in the data set with patients with cirrhosis (setting [10]) is given as “concomitant rise”; in data set [9] (LOLA with addition of dialysis (FIG. 9)), “prevented the concomitant increase”. In the data set with patients with cirrhosis (after LOLA was stopped), the “recurrence of HE” value is 3 of the 6. Moreover, the “circulating ammonia levels when LOLA was stopped” value in the data set on patients with cirrhosis (after stopping infusion) is given as “rebound increase”.

As to phenylbutyrate, the Dead/Alive result in [6] (individual patients P3-P8, listed as Phenylbutyrate alone) is “P5: A; also recorded: P6: A”. Moreover, the mean ammonia levels result in data set [6] was “increased from baseline values”. Further, the mean glutamine levels entry in [6] is reported as “reduction”. The plasma ammonia result in the data set on BDL cirrhotic rats (after 1 hour, p<0.01 vs all other groups) is reported as “significant increase”; with BDL cirrhotic rats (three hour time point / end of the study) it was “difference was found to be smaller”. Moreover, the arterial ammonia entry in data set [7] (0.3 g/Kg each over 3 hours, to experiment termination (FIG. 22), listed as Phenylbutyrate alone) was “initial blunting of arterial ammonia levels, which quickly rises to levels comparable with ornithine alone at experiment termination; also recorded: insignificant effects”. Besides, the “muscle ammonia uptake/production (femoral vein-artery)” value in data set [7] (listed as P alone) is recorded as “increase in ammonia production by the muscle”; in [7] (listed as Phenylbutyrate alone) it was “little change”. The “gut ammonia production (portal drained viscera-artery)” value in [7] (FIG. 24) is listed as “appreciable”. Also, in data set [7] (FIG. 25, listed as Phenylbutyrate alone), the muscle glutamine release result was “net removal”. Further, the gut glutamine uptake entry in data set [7] (FIG. 26) was “little overt effect”. The arterial glutamine levels result in data set [7] (FIG. 28) is reported as “marginally increases”.

(Values after US10610506B2 (UCL Business PLC, priority 2004, dated 2020).)
